# Results reported in PubChem BioAssay (NCI).
#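 A five-concentration, 48-hour dose response in 96-well plates underlies each endpoint, interpolated linearly between surrounding concentrations. The concentration for 50% growth inhibition is given as GI50. TGI marks complete inhibition of growth.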
# Assays:
# Test in all cases: NCI anticancer screen, dose series, 48 h
# [1] = system: HCC-2998 colon
# [2] = system: HOP-62 NSCLC
# [3] = system: DU-145 prostate
# [4] = system: ACHN renal
# [5] = system: MOLT-4 leukemia
# [6] = system: KM12 colon
# [7] = system: OVCAR-4 ovarian
# [8] = system: HS 578T breast
# [9] = system: LOX IMVI melanoma
# [10] = system: TK-10 renal
# [11] = system: U251 CNS
# [12] = system: MDA-MB-435
# [13] = system: UACC-257 melanoma
# [14] = system: RXF 393 renal
# [15] = system: OVCAR-3 ovarian
# [16] = system: SN12C renal
# [17] = system: NCI-H23 lung
# [18] = system: OVCAR-8 ovarian
# [19] = system: NCI/ADR-RES ovarian
# [20] = system: RPMI-8226 leukemia
# [21] = system: NCI-H460 lung
# [22] = system: HT29 colon
# [23] = system: SK-MEL-28 melanoma
# [24] = system: SNB-75 CNS
# [25] = system: K-562 leukemia
# [26] = system: A549 NSCLC
# [27] = system: OVCAR-5 ovarian
# [28] = system: COLO 205 colon
# [29] = system: MDA-MB-231 breast
# [30] = system: SF-268 CNS
# [31] = system: IGROV1 ovarian
# [32] = system: A498 renal
# [33] = system: HL-60(TB) leukemia
# [34] = system: SK-OV-3 ovarian
# [35] = system: UO-31 renal
# [36] = system: SK-MEL-5 melanoma
# [37] = system: NCI-H226 lung
# [38] = system: EKVX NSCLC
# [39] = system: 786-0 renal
# [40] = system: SF-539 CNS
# [41] = system: CCRF-CEM leukemia
# [42] = system: BT-549 breast
# [43] = system: SF-295 CNS
# [44] = system: HOP-92 NSCLC
# [45] = system: SNB-19 CNS
# [46] = system: SK-MEL-2 melanoma
# [47] = system: HCT-15 colon
# [48] = system: MALME-3M melanoma
# [49] = system: M14 melanoma
# [50] = system: CAKI-1 renal
# [51] = system: PC-3 prostate
# [52] = system: HCT-116 colon
# [53] = system: UACC-62 melanoma
# [54] = system: SW-620 colon
# [55] = system: SR leukemia
# [56] = system: NCI-H522 lung
structure (smiles),measurement,setting,value
COc1ccc2[nH]c(C(=O)OCc3ccc4c(Cl)cc(Cl)c(O)c4n3)cc2c1,GI50,[1],1640 nM
same,TGI,[1],3290 nM
same,GI50,[2],1330 nM
same,TGI,[2],2800 nM
same,GI50,[3],1330 nM
same,TGI,[3],2610 nM
same,GI50,[4],1080 nM
same,TGI,[4],2260 nM
same,GI50,[5],1030 nM
same,TGI,[5],3720 nM
same,GI50,[6],1760 nM
same,TGI,[6],3490 nM
same,GI50,[7],1490 nM
same,TGI,[7],2920 nM
same,GI50,[8],1280 nM
same,TGI,[8],3810 nM
same,GI50,[9],907 nM
same,TGI,[9],2220 nM
same,GI50,[10],1680 nM
same,TGI,[10],3050 nM
same,GI50,[11],1550 nM
same,TGI,[11],2940 nM
same,GI50,[12],1130 nM
same,TGI,[12],2450 nM
same,GI50,[13],1640 nM
same,TGI,[13],4230 nM
same,GI50,[14],407 nM
same,TGI,[14],1760 nM
same,GI50,[15],513 nM
same,TGI,[15],1830 nM
same,GI50,[16],1240 nM
same,TGI,[16],2510 nM
same,GI50,[17],1570 nM
same,TGI,[17],3370 nM
same,GI50,[18],1150 nM
same,TGI,[18],2600 nM
same,GI50,[19],2080 nM
same,TGI,[19],8160 nM
same,GI50,[20],803 nM
same,TGI,[20],3860 nM
same,GI50,[21],1750 nM
same,TGI,[21],3450 nM
same,GI50,[22],778 nM
same,TGI,[22],2320 nM
same,GI50,[23],1670 nM
same,TGI,[23],3030 nM
same,GI50,[24],251 nM
same,TGI,[24],1780 nM
same,GI50,[25],355 nM
same,TGI,[25],3050 nM
same,GI50,[26],1670 nM
same,TGI,[26],3400 nM
same,GI50,[27],1490 nM
same,TGI,[27],2900 nM
same,GI50,[28],1130 nM
same,TGI,[28],2560 nM
same,GI50,[29],1020 nM
same,TGI,[29],2180 nM
same,GI50,[30],1420 nM
same,TGI,[30],2770 nM
same,GI50,[31],601 nM
same,TGI,[31],1950 nM
same,GI50,[32],1910 nM
same,TGI,[32],3730 nM
same,GI50,[33],1500 nM
same,TGI,[33],3840 nM
same,GI50,[34],4060 nM
same,TGI,[34],17700 nM
same,GI50,[35],378 nM
same,TGI,[35],1960 nM
same,GI50,[36],1650 nM
same,TGI,[36],3020 nM
same,GI50,[37],1420 nM
same,TGI,[37],3070 nM
same,GI50,[38],1450 nM
same,TGI,[38],2880 nM
same,GI50,[39],1300 nM
same,TGI,[39],2600 nM
same,GI50,[40],1250 nM
same,TGI,[40],2500 nM
same,GI50,[41],312 nM
same,TGI,[41],2080 nM
same,GI50,[42],1210 nM
same,TGI,[42],2560 nM
same,GI50,[43],5120 nM
same,TGI,[43],18000 nM
same,GI50,[44],456 nM
same,TGI,[44],1990 nM
same,GI50,[45],2180 nM
same,TGI,[45],5690 nM
same,GI50,[46],1610 nM
same,TGI,[46],3370 nM
same,GI50,[47],698 nM
same,TGI,[47],2440 nM
same,GI50,[48],1480 nM
same,TGI,[48],2820 nM
same,GI50,[49],1440 nM
same,TGI,[49],2910 nM
same,GI50,[50],768 nM
same,TGI,[50],2130 nM
same,GI50,[51],990 nM
same,TGI,[51],2570 nM
same,GI50,[52],436 nM
same,TGI,[52],1650 nM
same,GI50,[53],1330 nM
same,TGI,[53],2610 nM
same,GI50,[54],814 nM
same,TGI,[54],2310 nM
same,GI50,[55],380 nM
same,TGI,[55],3700 nM
same,GI50,[56],1190 nM
same,TGI,[56],2990 nM
Cc1cn(S(=O)(=O)c2ccccc2)c2c(OCc3ccccc3)cc(NC(=O)c3cc4cc([N+](=O)[O-])ccc4s3)cc12,TGI,[1],> 100000 nM
same,TGI,[2],> 100000 nM
same,TGI,[3],> 100000 nM
same,TGI,[4],> 100000 nM
same,TGI,[5],> 100000 nM
same,TGI,[7],> 100000 nM
same,TGI,[8],> 100000 nM
same,TGI,[9],> 100000 nM
same,TGI,[10],> 100000 nM
same,TGI,[14],> 100000 nM
same,TGI,[17],> 100000 nM
same,TGI,[18],> 100000 nM
same,TGI,[19],> 100000 nM
same,TGI,[20],> 100000 nM
same,TGI,[21],> 100000 nM
same,TGI,[23],> 100000 nM
same,TGI,[24],> 100000 nM
same,TGI,[26],> 100000 nM
same,TGI,[27],> 100000 nM
same,TGI,[28],> 100000 nM
same,TGI,[29],> 100000 nM
same,TGI,[31],> 100000 nM
same,TGI,[33],> 100000 nM
same,TGI,[34],> 100000 nM
same,TGI,[35],> 100000 nM
same,TGI,[36],> 100000 nM
same,TGI,[38],> 100000 nM
same,TGI,[41],> 100000 nM
same,TGI,[42],> 100000 nM
same,TGI,[43],> 100000 nM
same,TGI,[47],> 100000 nM
same,TGI,[48],> 100000 nM
same,TGI,[49],> 100000 nM
same,TGI,[50],> 100000 nM
same,TGI,[54],> 100000 nM
same,TGI,[56],> 100000 nM
